The values that follow come from ChEMBL document CHEMBL3396992, “Synthesis and biological evaluation of pyrazolylthiazole carboxylic acids as potent anti-inflammatory-antimicrobial agents” (2015).

≈ marks a conversion by molar mass, not a printed value. Calls of active or inactive are those of the source. No cut-off for these calls is given here.

In test [1] the test system is Pseudomonas aeruginosa. Particulars: MTCC 741, 4 mg/ml.
Description: Antimicrobial activity against Pseudomonas aeruginosa MTCC 741 assessed as growth inhibition at 4 mg/ml after 24 hrs by agar well diffusion method
Test [2] relates to Bacillus subtilis. Briefly: Antimicrobial activity against Bacillus subtilis MTCC 121 assessed as growth inhibition at 4 mg/ml after 24 hrs by agar well diffusion method. Particulars: MTCC 121, 24 h, read-out: DIZ. It is filed as functional. (A growth-free zone around the sample is the usual read-out of agar diffusion tests.)
Test [3] has as its system Rattus norvegicus. Briefly: Antiinflammatory activity against carrageenan-induced paw edema male Wistar albino rat at 50 mg/kg, ip administered 30 mins prior to carrageenan-challenge measured after 1 hr relative to control. It is filed as functional. The conditions noted are these: route intraperitoneal. (In the carrageenan paw model, swelling and tenderness develop within hours.)

The test system of test [4] is Rattus norvegicus. Briefly: Antiinflammatory activity against carrageenan-induced paw edema male Wistar albino rat at 50 mg/kg, ip administered 30 mins prior to carrageenan-challenge measured after 3 hrs relative to control. The test is classed as functional. Particulars: route intraperitoneal.
In test [5] the test system is Saccharomyces cerevisiae. Briefly: Antimicrobial activity against Saccharomyces cerevisiae MTCC 170 assessed as growth inhibition at 4 mg/ml after 24 hrs by agar well diffusion method. Particulars: for zone of inhibition at 4000 µg/mL: MTCC 170, 24 h, read-out: DIZ. It is filed as functional.
Test [6] relates to Saccharomyces cerevisiae. Briefly: Antimicrobial activity against Saccharomyces cerevisiae MTCC 170 assessed as growth inhibition after 24 hrs by agar well diffusion method. It is filed as functional.
Test [7] concerns Candida albicans. Briefly: Antimicrobial activity against Candida albicans MTCC 3017 assessed as growth inhibition after 24 hrs by agar well diffusion method. Particulars: MTCC 3017, 24 h. The test is classed as functional.
For test [8], the system named is Escherichia coli. Briefly: Antimicrobial activity against Escherichia coli MTCC 1652 assessed as growth inhibition at 4 mg/ml after 24 hrs by agar well diffusion method. The test is classed as functional, organism-based.
The subject of test [9] is Staphylococcus aureus. Briefly: Antimicrobial activity against Staphylococcus aureus MTCC 96 assessed as growth inhibition after 24 hrs by agar well diffusion method. The test is classed as functional.
Test [10] concerns Staphylococcus aureus. Briefly: Antimicrobial activity against Staphylococcus aureus MTCC 96 assessed as growth inhibition at 4 mg/ml after 24 hrs by agar well diffusion method. It is filed as functional. Particulars: for zone of inhibition at 4000 µg/mL: MTCC 96, 24 h, read-out: DIZ.
Test [11] relates to Bacillus subtilis. Briefly: Antimicrobial activity against Bacillus subtilis MTCC 121 assessed as growth inhibition after 24 hrs by agar well diffusion method. The test is classed as functional. Particulars: MTCC 121, 24 h.
The subject of test [12] is Rattus norvegicus. Briefly: Antiinflammatory activity against carrageenan-induced paw edema male Wistar albino rat at 50 mg/kg, ip administered 30 mins prior to carrageenan-challenge measured after 4 hrs relative to control. Particulars: route intraperitoneal. The test is classed as functional.
In test [13] the test system is Rattus norvegicus. Briefly: Antiinflammatory activity against carrageenan-induced paw edema male Wistar albino rat assessed as edema volume at 50 mg/kg, ip administered 30 mins prior to carrageenan-challenge measured after 4 hrs (reference value: 1.88 +/- 0.20 mL). The conditions noted are these: route intraperitoneal. It is filed as functional.
The subject of test [14] is Candida albicans. Briefly: Antimicrobial activity against Candida albicans MTCC 3017 assessed as growth inhibition at 4 mg/ml after 24 hrs by agar well diffusion method. The test is classed as functional. The conditions noted are these: MTCC 3017, 24 h, read-out: DIZ.
Test [15] has as its system Rattus norvegicus. Briefly: Antiinflammatory activity against carrageenan-induced paw edema male Wistar albino rat assessed as edema volume at 50 mg/kg, ip administered 30 mins prior to carrageenan-challenge measured after 3 hrs (reference value: 1.73 +/- 0.09 mL). The test is classed as functional. Particulars: route intraperitoneal.
For test [16], the system named is Rattus norvegicus. Briefly: Antiinflammatory activity against carrageenan-induced paw edema male Wistar albino rat assessed as edema volume at 50 mg/kg, po administered 30 mins prior to carrageenan-challenge measured after 1 hr (reference value: 1.11 +/- 0.12 mL). The test is classed as functional.
Test [17] deals with Rattus norvegicus. Briefly: Antiinflammatory activity against carrageenan-induced paw edema male Wistar albino rat at 50 mg/kg, ip administered 30 mins prior to carrageenan-challenge measured after 2 hrs relative to control. The test is classed as functional. The conditions noted are these: route intraperitoneal.
Test [18] concerns Rattus norvegicus. Briefly: Antiinflammatory activity against carrageenan-induced paw edema male Wistar albino rat assessed as edema volume at 50 mg/kg, ip administered 30 mins prior to carrageenan-challenge measured after 2 hrs (reference value: 1.21 +/- 0.16 mL). The conditions noted are these: route intraperitoneal. The test is classed as functional.

In the case of `CCOC(=O)c1sc(-c2cn(-c3ccccc3)nc2-c2ccc(OC)cc2)nc1-c1ccccc1`, the DIZ entry in test [1] is “inactive”. For the same compound, the results for the zone of inhibition at 4000 µg/mL in test [2] and in [14] were 15 mm and 18.3 mm, respectively. In addition, the Activity was found to be 90.19% in test [3]; 80.92% in test [4]; 90.95% in test [12]; 0.24 mL in [13]; 0.33 mL in test [15]; 0.11 mL in test [16]. The figures for the Activity in [17] and in [18] were 83.47% and 0.2 mL, respectively. Further, the “diameter of the inhibition zone (DIZ)” value in test [5], in test [8] and in test [10] was “inactive” in each case. In addition, the MIC result in [6] and in test [9] was “inactive” in each case. Further, the figures for the MIC in [7] and in [11] were 25 mg/L (≈ 51.9 µM) and 50 mg/L (≈ 104 µM), respectively.
Regarding `CCOC(=O)c1sc(-c2cn(-c3ccccc3)nc2-c2ccc(F)cc2)nc1-c1ccc(OC)cc1`, in test [1], the DIZ entry was “inactive”. Also, the zone of inhibition at 4000 µg/mL is 13.3 mm in test [2] and 15.6 mm in [14]. Further, the Activity is 80.18% in [3]; 77.45% in test [4]; 82.97% in test [12]; 0.32 mL in test [13]; 0.39 mL in test [15]; 0.22 mL in test [16]. The Activity came out at 79.33% in [17] and 0.27 mL in test [18]. Moreover, the “diameter of the inhibition zone (DIZ)” value in test [5], in test [8] and in test [10] was “inactive” throughout. The MIC entry in [6] and in [9] was “inactive” each time. Further, the MIC in test [7] and in [11] was 50 mg/L (≈ 100 µM) in each case.
Take `COc1ccc(-c2nn(-c3ccccc3)cc2-c2nc(-c3ccc(F)cc3)c(C(=O)O)s2)cc1`: the DIZ result in test [1] is “inactive”. The zone of inhibition at 4000 µg/mL in test [2] stood at 12 mm; in test [5], 15.3 mm; in test [10], 12 mm; in test [14], 12 mm. In addition, the Activity in test [3] is 82.88%; in test [4], 82.08%; in test [12] it was 90.42%; in test [13] it was 0.18 mL; in test [15], 0.31 mL; in [16], 0.19 mL. In addition, the Activity in test [17] came out at 81.81%; in test [18] it was 0.22 mL. Also, the MIC amounted to 50 mg/L (≈ 106 µM) in test [6] (MTCC 170, 24 h); 50 mg/L (≈ 106 µM) in [7]; 50 mg/L (≈ 106 µM) in test [9] (MTCC 96, 24 h); 50 mg/L (≈ 106 µM) in test [11]. Also, in [8], the “diameter of the inhibition zone (DIZ)” value was “inactive”.
As to `CCOC(=O)c1sc(-c2cn(-c3ccccc3)nc2-c2ccc(F)cc2)nc1-c1ccc(F)cc1`, the DIZ result in test [1] is “inactive”. In addition, the zone of inhibition at 4000 µg/mL in test [2] worked out at 15.6 mm; in [14], 22.6 mm. Further, the Activity worked out at 85.58% in [3]; 81.5% in [4]; 87.76% in [12]; 0.23 mL in [13]; 0.32 mL in test [15]; 0.16 mL in [16]. The Activity in test [17] is 79.33%; in [18], 0.25 mL. In addition, the “diameter of the inhibition zone (DIZ)” value in test [5], in test [8] and in test [10] was “inactive” each time. Moreover, the MIC entry in test [6] and in [9] was “inactive” throughout. For the same compound, the MIC is 12.5 mg/L (≈ 25.6 µM) in test [7] and 50 mg/L (≈ 103 µM) in [11].
For the compound `COc1ccc(-c2nc(-c3cn(-c4ccccc4)nc3-c3ccccc3)sc2C(=O)O)cc1`, in [1], the DIZ result was “inactive”. Further, the zone of inhibition at 4000 µg/mL worked out at 17.6 mm in test [2], 21.3 mm in test [5], 20.3 mm in test [10] and 15.3 mm in test [14]. For the same compound, the Activity in test [3] was 82.88%; in test [4], 86.12%; in test [12], 88.29%; in test [13], 0.22 mL; in [15], 0.24 mL; in test [16], 0.19 mL. Besides, the Activity stood at 79.33% in test [17] and 0.25 mL in test [18]. Further, the MIC in [6] (MTCC 170, 24 h) worked out at 25 mg/L (≈ 55.1 µM); in test [7], 50 mg/L (≈ 110 µM); in [9] (MTCC 96, 24 h), 25 mg/L (≈ 55.1 µM); in test [11], 50 mg/L (≈ 110 µM). In addition, the “diameter of the inhibition zone (DIZ)” value in [8] was “inactive”.
Take `O=C(O)c1sc(-c2cn(-c3ccccc3)nc2-c2ccc(Cl)cc2)nc1-c1ccccc1`: the DIZ entry in test [1] was “inactive”. Besides, the zone of inhibition at 4000 µg/mL in [2] worked out at 22.6 mm; in test [5], 26.6 mm; in test [10], 22.6 mm; in [14] it was 24.6 mm. The Activity was found to be 71.17% in test [3]; 60.11% in test [4]; 71.27% in [12]; 0.54 mL in test [13]; 0.69 mL in [15]; 0.32 mL in [16]. In addition, the Activity in test [17] is 61.98%; in test [18] it was 0.46 mL. For the same compound, the MIC in [6] (MTCC 170, 24 h) is 6.25 mg/L (≈ 13.6 µM); in test [7] it was 6.25 mg/L (≈ 13.6 µM); in test [9] (MTCC 96, 24 h), 25 mg/L (≈ 54.6 µM); in test [11], 12.5 mg/L (≈ 27.3 µM). Moreover, in test [8], the “diameter of the inhibition zone (DIZ)” value is “inactive”.
As for `CCOC(=O)c1sc(-c2cn(-c3ccccc3)nc2-c2ccc(Cl)cc2)nc1-c1ccc(OC)cc1`, in [1], the DIZ result is “inactive”. The zone of inhibition at 4000 µg/mL in test [2] and in test [14] was 15.3 mm throughout. In addition, the Activity in test [3] amounted to 90.99%; in [4] it was 85.54%; in [12], 88.92%; in test [13] it was 0.21 mL; in test [15] it was 0.25 mL; in [16], 0.1 mL. Further, the Activity in [17] is 71.07%; in test [18], 0.35 mL. The “diameter of the inhibition zone (DIZ)” value in test [5], in test [8] and in test [10] was “inactive” throughout. For the same compound, the MIC entry in test [6] and in test [9] was “inactive” in each case. For the same compound, the MIC in test [7] and in [11] was 50 mg/L (≈ 96.9 µM) throughout.
As for `O=C(O)c1sc(-c2cn(-c3ccccc3)nc2-c2ccccc2)nc1-c1ccc(Cl)cc1`, in test [1], the DIZ result is “inactive”. Moreover, the zone of inhibition at 4000 µg/mL was 17.6 mm in [2], 20.6 mm in test [5], 21 mm in test [10] and 17.6 mm in test [14]. The Activity stood at 87.38% in test [3]; 88.43% in test [4]; 88.29% in [12]; 0.22 mL in test [13]; 0.2 mL in test [15]; 0.14 mL in test [16]. For the same compound, the Activity in [17] stood at 82.64%; in test [18], 0.21 mL. For the same compound, the MIC stood at 25 mg/L (≈ 54.6 µM) in test [6] (MTCC 170, 24 h); 50 mg/L (≈ 109 µM) in [7]; 25 mg/L (≈ 54.6 µM) in [9] (MTCC 96, 24 h); 50 mg/L (≈ 109 µM) in test [11]. Moreover, the “diameter of the inhibition zone (DIZ)” value in test [8] is “inactive”.

Usually MIC stands for the lowest concentration that inhibits growth of the organism.
